{
  "source": "patent US20050222085A1",
  "about": "“Quaternised ammonium cyclodextrin compounds” (priority 2002, published 2005)",
  "experiment_in_all_cases": "Preservative effectiveness test",
  "format_in_all_cases": "cell-based",
  "key": {"[1]": {"system": "Escherichia coli ATCC 8739", "conditions": "same solution", "method": "(§1) 0.2 g of QA-beta-CD (QA-beta-CD=3-(trimethylammonio)-2-hydroxypropyl-beta-cyclodextrin chloride, empiric formula: (C6H10-nO5)7(C6H15ONCl)n n=2-5. are added to 170 ml water (nanopure). Then 10.10 g of Sorbitol and 0.2 g of Disodium edetate are added and the pH is adjusted to a value of 7.0-7.4 and water added to make up 200 ml of resulting solution. The solution is filtered through a Corning bottle top filter unit 0.22 μm CA under sterile conditions. The solution has a pH of 7.35 and an osmolality of 307 mOsm/kg (270-330).\n(§2) Samples of the solution are inoculated with Escherichia coli ATCC 8739; Pseudomonas aeruginosa ATCC 9027, Staphyloccocus aureus ATCC 6538; Candida albicans ATCC 10231 and Aspergillus niger ATCC 16404, respectively and assayed for presence/growth at the times given in Table 2."}, "[2]": {"system": "Candida albicans ATCC 10231", "conditions": "same solution", "method": "as §1, §2"}, "[3]": {"system": "Aspergillus niger ATCC 16404", "conditions": "Time 28 d; same solution", "method": "as §1, §2"}, "[4]": {"system": "Staphyloccocus aureus ATCC 6538", "conditions": "same solution", "method": "as §1, §2"}, "[5]": {"system": "Pseudomonas aeruginosa ATCC 9027", "conditions": "same solution", "method": "as §1, §2"}},
  "data": [
    {"substance": "3-(trimethylammonio)-2-hydroxypropyl-beta-cyclodextrin chloride [QA-beta-CD]", "values": [
      {"measurement": "presence/growth of Escherichia coli ATCC 8739", "setting": "[1]; Time 6 h", "value": "<10^2"},
      {"measurement": "presence/growth of Escherichia coli ATCC 8739", "setting": "[1]; Time 24 h", "value": "<10^2"},
      {"measurement": "presence/growth of Escherichia coli ATCC 8739", "setting": "[1]; Time 7 d", "value": "<10^2"},
      {"measurement": "presence/growth of Escherichia coli ATCC 8739", "setting": "[1]; Time 28 d", "value": "<10^2"},
      {"measurement": "presence/growth of Candida albicans ATCC 10231", "setting": "[2]; Time 7 d", "value": "<10^2"},
      {"measurement": "presence/growth of Candida albicans ATCC 10231", "setting": "[2]; Time 14 d", "value": "<10^2"},
      {"measurement": "presence/growth of Candida albicans ATCC 10231", "setting": "[2]; Time 28 d", "value": "<10^2"},
      {"measurement": "presence/growth of Aspergillus niger ATCC 16404", "setting": "[3]", "value": "2. 10^2"},
      {"measurement": "presence/growth of Staphyloccocus aureus ATCC 6538", "setting": "[4]; Time 24 h", "value": "<10^2"},
      {"measurement": "presence/growth of Staphyloccocus aureus ATCC 6538", "setting": "[4]; Time 7 d", "value": "<10^2"},
      {"measurement": "presence/growth of Staphyloccocus aureus ATCC 6538", "setting": "[4]; Time 28 d", "value": "<10^2"},
      {"measurement": "presence/growth of Pseudomonas aeruginosa ATCC 9027", "setting": "[5]; Time 6 h", "value": "<10^2"},
      {"measurement": "presence/growth of Pseudomonas aeruginosa ATCC 9027", "setting": "[5]; Time 24 h", "value": "<10^2"},
      {"measurement": "presence/growth of Pseudomonas aeruginosa ATCC 9027", "setting": "[5]; Time 7 d", "value": "<10^2"},
      {"measurement": "presence/growth of Pseudomonas aeruginosa ATCC 9027", "setting": "[5]; Time 28 d", "value": "<10^2"}
    ]}
  ]
}
